The subject of this assay is Microprocessor (Drosha and DGCR8) at the C19MC locus. The assay is described as follows: RNA FISH combined with immunofluorescence: recruitment of the Microprocessor on pri-miRNAs near the C19MC transcription site. The format is cell-based, human. The note with it: cells treated with Actinomycin; data not shown. An excerpt:
To determine whether the Microprocessor can be visualized on the pri-miRNAs of the freshly synthesized C19MC locus, the inventors combined RNA FISH experiments with experiments for detection of proteins by immunofluorescence, according to the techniques familiar to a person skilled in the art. The inventors were thus able to detect the endogenous Drosha or DGCR8 proteins (FIG. 4). The inventors observed a co-localization of intense immunofluorescence signals for Drosha and
Recruitment depends on transcription and probably occurs via interaction with the RNAs, since there is no detection in cells treated with Actinomycin, in which C19MC-HG is not detected near the transcription site of C19MC (data not shown).

In the case of Actinomycin, the “detection of C19MC-HG near the transcription site of C19MC” value is “not detected” and the “detection of Microprocessor recruitment on pri-miRNAs” value is “no detection”.

Values taken from patent US20120202209A1, “CELL IMAGING METHOD FOR VIEWING MICRORNA BIOGENESIS IN THE CELLS” (Centre National de la Recherche Scientifique - CNRS, priority 2009, published 2012).
